Patent US5382586A, “Aryl (or heteroaryl)piperazinylalkylazole derivatives, their preparation and their application as medicaments” (priority 1991, dated 1995)

Test system: familiarisation process in mice
Assay: light box/dark box test: familiarisation process (improvement of cognition)
Format: in vivo, mouse
Parameters: Time in the box, dark (D): unit not given here
Excerpt: The influence of this product on the familiarisation process of mice in the light box/dark box test described by J. M. Barnes et al., (Pharmacol. Biochem. Behav., 1990, 35, 955-962) is studied. On the one hand, the effect on learning (the speed of familiarisation) and on the other hand the capacity for blocking contrary effects produced by escopolamine are studied.
The mouse is placed in the light zone of a box divided into two compartments, one brightly illuminated, the light box, and the other with little illumination, the dark box.
1) The number of times the mouse stands up on the hind paws in each compartment during a 5 minute period is counted (see Column 1 of the table below).
2) The activity in each compartment is given by counting the number of crossings through the squares which form the divisions of each compartment (see Column 2 of the table below).
3) The time passed in the dark box during the 5 minute counting period is determined (see Column 3 of the table below).
4) The initial latent period is determined, that is to say the time which elapses after the animal is placed in the light box, at the start of the test, before it enters the dark box (see Column 4 of the table below).
Two treatments with the vehicle are administered to the control animals per day. Two doses of 0.00001 ng/kg p.o. of compound 42 are administered per day to the animals treated with this product. The same operation is repeated daily for 5 days.
The animals learn to remain in the dark box for a longer period and to go into the box more rapidly.
On day six escopolamine (2×0.25 mg/kg, i.p.) is administered.
They recover the learned habit on day seven.

[1] = day 1, 0.00001 ng/kg, p.o., twice per day
[2] = day 2, 0.00001 ng/kg, p.o., twice per day
[3] = day 3, 0.00001 ng/kg, p.o., twice per day
[4] = day 4, 0.00001 ng/kg, p.o., twice per day
[5] = day 5, 0.00001 ng/kg, p.o., twice per day
[6] = day 6, after 2 treatments with escopolamine (0.25 mg/kg, i.p.), Example 42 at 0.00001 ng/kg p.o. twice per day
[7] = day 7, 0.00001 ng/kg, p.o., twice per day

For Cc1nc(Cl)c(Cl)n1CCCCN1CCN(c2ncccn2)CC1.O=C(O)CC(O)(CC(=O)O)C(=O)O [Example 42, 4,5-dichloro-2-methyl-1-{4-[4-(2-pyrimidinyl)-1-piperazinyl]-butyl}-1H-imidazole citrate], the “Activity within 5 min. period, dark (D)” value [1] was 82, the “Activity within 5 min. period, light (L)” value [1] was 36 and the “Latent period L-D” value [1] was 11. For the same compound, the “No. of times standing erect within 5 min period, dark (D)” value [1] was 79, the “No. of times standing erect within 5 min period, light (L)” value [1] was 23 and the “Time in the box, dark (D)” value [1] was 60. For the same compound, the “Activity within 5 min. period, dark (D)” value [2] was 167, the “Activity within 5 min. period, light (L)” value [2] was 11 and the “Latent period L-D” value [2] was 2. For the same compound, the “No. of times standing erect within 5 min period, dark (D)” value [2] was 147, the “No. of times standing erect within 5 min period, light (L)” value [2] was 10 and the “Time in the box, dark (D)” value [2] was 80. For the same compound, the “Activity within 5 min. period, dark (D)” value [3] was 179, the “Activity within 5 min. period, light (L)” value [3] was 10 and the “Latent period L-D” value [3] was 2. For the same compound, the “No. of times standing erect within 5 min period, dark (D)” value [3] was 156, the “No. of times standing erect within 5 min period, light (L)” value [3] was 8 and the “Time in the box, dark (D)” value [3] was 79. The “Activity within 5 min. period, dark (D)” value [4] was 183, the “Activity within 5 min. period, light (L)” value [4] was 9 and the “Latent period L-D” value [4] was 1.5. The “No. of times standing erect within 5 min period, dark (D)” value [4] was 161, the “No. of times standing erect within 5 min period, light (L)” value [4] was 9 and the “Time in the box, dark (D)” value [4] was 83. For the same compound, the “Activity within 5 min. period, dark (D)” value [5] was 176, the “Activity within 5 min. period, light (L)” value [5] was 12 and the “Latent period L-D” value [5] was 1. The “No. of times standing erect within 5 min period, dark (D)” value [5] was 151, the “No. of times standing erect within 5 min period, light (L)” value [5] was 11 and the “Time in the box, dark (D)” value [5] was 82. The “Activity within 5 min. period, dark (D)” value [6] was 181, the “Activity within 5 min. period, light (L)” value [6] was 14 and the “Latent period L-D” value [6] was 1.5. For the same compound, the “No. of times standing erect within 5 min period, dark (D)” value [6] was 172, the “No. of times standing erect within 5 min period, light (L)” value [6] was 10 and the “Time in the box, dark (D)” value [6] was 81. The “Activity within 5 min. period, dark (D)” value [7] was 187, the “Activity within 5 min. period, light (L)” value [7] was 8 and the “Latent period L-D” value [7] was 1. For the same compound, the “No. of times standing erect within 5 min period, dark (D)” value [7] was 181, the “No. of times standing erect within 5 min period, light (L)” value [7] was 8 and the “Time in the box, dark (D)” value [7] was 83. For the same compound, the “effect on the effects of escopolamine” value (escopolamine 2×0.25 mg/kg, i.p., day six) was “blocks the effects of escopolamine”, the cognition-improving activity (mice) was “has a cognition-improving activity” and the “effect on the learning process” value (mice) was “improves the learning process”.
